According to publication PMC4585259 (Frontiers in Pharmacology, 2015):
Read-outs that look alike come from different tables or passages of the source.

Target: T1, rNav1.2 sodium channels (Rattus norvegicus, UniProt P04775)
T1 construct: host or cells: HEK-293
Test: QPatch automated patch clamp, inhibition of sodium currents evoked by 5 Hz trains at three extracellular pH values
Type: cell-based
Conditions: for class of pH-dependence pattern (cluster analysis): Ward's method on 18 variables of affinity, reversibility, onset
Experimental: HEK-293 cells stably expressing rNav1.2 sodium channels were obtained from NeuroSearch (Ballerup, Denmark). The cells were grown in Dulbecco's modified Eagle medium supplemented with 10% FBS. Prior to use, the cells were trypsinized and subsequently kept in suspension in the QPatch cell storage facility in CHO-S- SFM-II medium.
Composition of the extracellular solution was: (in mM): 140 NaCl, 3 KCl, 1 CaCl2 1 MgCl2, 0.1 CdCl2, 20 TEA-Cl, 5 HEPES, adjusted to pH 7.3, Osmolality: 320 mOsm. […] Drugs were synthesized in Gedeon Richter Plc. […] The full list of drugs, with their three-letter codes, concentration, as well as their main therapeutic indication and main mechanism of action are shown in Table 1. […] The choice of concentrations used in this study may seem unusually high.
Data were sampled at a frequency of 25 kHz and filtered at 5 kHz. Junction potential was calculated to be −11 mV and was corrected for. […] Cells having membrane resistance < 500 MOhm, series resistance > 9 MOhm, or capacitance > 22 pF were excluded from analysis. The experimental protocol was also identical to the one used in our previous study: sodium channels were activated by 5 Hz trains of 5 depolarizations (−90 to −10 mV) repeated in every 20 s. In this study, however, the same control–drug-application–washout sequence was repeated four times: at neutral, acidic, alkalic, and again neutral pH. The peak amplitudes of sodium currents throughout the whole experiment are shown plotted against time in Figure 1 and Supplementary Figure 1.
Initial analysis, including subtraction of leak and capacitive artifacts, as well as peak detection were done in the QPatch software. […] All experiments were normalized to the amplitude of the current evoked by the first depolarization of the last train under control conditions. […] For all four drug applications in an experiment, apparent affinity, onset and offset time constants as well as reversibility values were calculated. […] (This method is equivalent to applying the Lineweaver-Burk plot method using a single concentration.) Reversibility values were calculated from control (c), inhibited (i), and wash-out (w) amplitudes as follows: Reversibility = (w-i)/(c-i). Reversibility values should not be regarded as experimental platform-independent properties of compounds. […] However, reversibility values are a valuable source of information regarding physicochemical differences between individual drugs, or between effects of the same drug under different extracellular pH conditions. Onset and offset time constants were determined by single exponential fitting to individual experiments. For neutral pH numerical data were given as the average of the data from the first and the last drug applications. Thin black lines on Figure 1 and Supplemental Figure 1 show the average of five fitted exponentials, (not the exponential fitted to the averaged normalized amplitudes). The numerical values of apparent affinity, onset and offset time constants and reversibility are shown in Table 2, and their relative position is illustrated in Figure 2. Affinity and time constant values were logarithmically transformed for statistics, therefore we show their geometric mean. For recovery data no transformation was done, and we show arithmetic mean values. Significance values were calculated using paired, two-tailed Student's t-test based on five pairs of apparent affinity (log transform), time constant (log transform), or reversibility values obtained from five individual experiments. Because of the large number of comparisons in this study, we accepted p < 0.01 as significant. Cluster analysis was done using Ward's minimum variance method, with Euclidean distance measure. Data were normalized by subtracting the mean (after logarithmic transformation in the case of apparent affinity and time constants), and dividing by the standard deviation.

[1] = pH 6.0, concentration (lidocaine 300 μM, memantine 30 μM)
[2] = pH 6.0, single concentration (lidocaine 300 μM, memantine 30 μM), geometric mean of 5, read-out: apparent affinity
[3] = pH 7.3, concentration (lidocaine 300 μM, memantine 30 μM)
[4] = pH 7.3, single concentration (lidocaine 300 μM, memantine 30 μM), geometric mean of 5, read-out: apparent affinity
[5] = pH 8.6, concentration (lidocaine 300 μM, memantine 30 μM)
[6] = pH 8.6, single concentration (lidocaine 300 μM, memantine 30 μM), geometric mean of 5, read-out: apparent affinity
[7] = pH=6.0, cc 300 mM, read-out: Apparent Affinity
[8] = pH=7.3, cc 300 mM, read-out: Apparent Affinity
[9] = pH=8.6, cc 300 mM, read-out: Apparent Affinity

T1 sequence (P04775 whole entry): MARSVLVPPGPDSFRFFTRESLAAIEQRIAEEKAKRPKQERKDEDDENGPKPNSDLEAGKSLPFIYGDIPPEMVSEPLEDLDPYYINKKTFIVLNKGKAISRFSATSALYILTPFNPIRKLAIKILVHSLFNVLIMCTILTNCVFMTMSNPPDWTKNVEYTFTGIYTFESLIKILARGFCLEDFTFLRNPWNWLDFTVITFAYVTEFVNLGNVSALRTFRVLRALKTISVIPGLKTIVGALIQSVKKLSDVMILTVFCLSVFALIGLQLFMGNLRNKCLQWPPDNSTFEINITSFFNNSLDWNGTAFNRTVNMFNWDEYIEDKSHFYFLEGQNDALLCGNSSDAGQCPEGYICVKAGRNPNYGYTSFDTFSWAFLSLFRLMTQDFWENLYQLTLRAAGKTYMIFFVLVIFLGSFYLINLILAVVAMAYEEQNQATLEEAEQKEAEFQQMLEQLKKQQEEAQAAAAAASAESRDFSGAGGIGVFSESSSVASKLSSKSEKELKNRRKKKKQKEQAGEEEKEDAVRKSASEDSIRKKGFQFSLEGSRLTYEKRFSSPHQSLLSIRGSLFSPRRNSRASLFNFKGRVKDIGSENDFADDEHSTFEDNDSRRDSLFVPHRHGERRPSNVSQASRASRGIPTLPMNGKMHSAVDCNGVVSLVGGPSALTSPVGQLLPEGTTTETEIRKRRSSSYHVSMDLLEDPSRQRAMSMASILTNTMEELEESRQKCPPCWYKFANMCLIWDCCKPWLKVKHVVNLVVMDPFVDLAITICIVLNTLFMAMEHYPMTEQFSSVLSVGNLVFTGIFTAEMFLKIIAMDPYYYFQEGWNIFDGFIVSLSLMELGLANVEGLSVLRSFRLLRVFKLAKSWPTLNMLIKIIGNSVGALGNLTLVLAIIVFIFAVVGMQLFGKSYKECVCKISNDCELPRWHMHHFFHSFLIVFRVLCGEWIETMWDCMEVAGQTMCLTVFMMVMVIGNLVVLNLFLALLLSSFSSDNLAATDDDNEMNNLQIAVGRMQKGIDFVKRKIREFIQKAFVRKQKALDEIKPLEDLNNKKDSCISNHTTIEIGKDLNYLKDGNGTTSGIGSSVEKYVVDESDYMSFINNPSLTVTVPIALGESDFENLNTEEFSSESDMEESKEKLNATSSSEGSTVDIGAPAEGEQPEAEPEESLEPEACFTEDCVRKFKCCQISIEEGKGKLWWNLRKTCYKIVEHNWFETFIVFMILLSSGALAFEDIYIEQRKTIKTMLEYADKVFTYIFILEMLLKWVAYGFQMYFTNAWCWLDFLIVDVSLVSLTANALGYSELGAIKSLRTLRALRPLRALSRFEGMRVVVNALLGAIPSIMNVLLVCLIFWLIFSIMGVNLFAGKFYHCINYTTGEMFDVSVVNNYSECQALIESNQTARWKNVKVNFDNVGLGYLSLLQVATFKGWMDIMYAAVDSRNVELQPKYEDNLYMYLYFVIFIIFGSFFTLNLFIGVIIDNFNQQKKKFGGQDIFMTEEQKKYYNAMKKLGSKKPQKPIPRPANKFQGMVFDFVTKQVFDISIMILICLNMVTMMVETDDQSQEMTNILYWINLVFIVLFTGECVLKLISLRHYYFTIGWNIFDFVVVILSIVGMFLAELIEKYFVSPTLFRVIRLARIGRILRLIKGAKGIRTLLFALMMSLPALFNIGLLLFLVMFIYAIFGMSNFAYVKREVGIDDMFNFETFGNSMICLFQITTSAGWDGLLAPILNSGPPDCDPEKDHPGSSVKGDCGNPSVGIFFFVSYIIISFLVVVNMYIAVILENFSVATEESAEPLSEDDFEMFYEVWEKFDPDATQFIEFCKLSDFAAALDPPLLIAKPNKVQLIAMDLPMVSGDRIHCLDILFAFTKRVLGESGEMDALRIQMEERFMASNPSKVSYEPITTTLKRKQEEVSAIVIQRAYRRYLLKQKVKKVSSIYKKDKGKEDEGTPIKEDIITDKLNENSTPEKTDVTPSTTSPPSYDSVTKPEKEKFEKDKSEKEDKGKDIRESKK

Structure (SMILES)	class of pH-dependence pattern (cluster analysis)	τoffset [1]	τonset [1]	Kd [2]	τoffset [3]	τonset [3]	Kd [4]	τoffset [5]	τonset [5]	Kd [6]	Reversibility (pH=6.0, cc 30 mM)	Reversibility (pH=7.3, cc 30 mM)	Reversibility (pH=8.6, cc 30 mM)	effect of alkalic pH on onset/offset kinetics (in words)	Ratio Reversibility (pH 6.0/7.3, cc 300 mM)	Ratio Tau Offset (pH 6.0/7.3, cc 300 mM)	Reversibility (pH=6.0, cc 300 mM)	Kd [7]	Kd [8]	Kd [9]	also measured
CN(C)CCCN1c2ccccc2Sc2ccc(Cl)cc21 [chlorpromazine]	Class G	23.60 s	19.40 s	37.5 µM	28.40 s	22.20 s	31.4 µM	33.00 s	29.40 s	17.2 µM	0.53	0.28	0.37	–	–	–	–	–	–	–	alkalization-induced recovery (neutral-to-alkalic solution exchange, in words): prominent alkalization-induced recovery; reversibility at all three pH values (pH 6.0, 7.3 and 8.6): below 0.6; Ratio Reversibility (pH 6.0/7.3, cc 30 mM): 1.906; Ratio Tau Offset (pH 6.0/7.3, cc 30 mM): 0.831; Ratio Tau Onset (pH 6.0/7.3, cc 30 mM): 0.874; log Ratio App Aff (pH 6.0/7.3, cc 30 mM): 0.077; Ratio Reversibility (pH 6.0/8.6, cc 30 mM): 1.432; Ratio Tau Offset (pH 6.0/8.6, cc 30 mM): 0.715; Ratio Tau Onset (pH 6.0/8.6, cc 30 mM): 0.660; log Ratio App Aff (pH 6.0/8.6, cc 30 mM): 0.339; Ratio Reversibility (pH 7.3/8.6, cc 30 mM): 0.751; Ratio Tau Offset (pH 7.3/8.6, cc 30 mM): 0.861; Ratio Tau Onset (pH 7.3/8.6, cc 30 mM): 0.755; log Ratio App Aff (pH 7.3/8.6, cc 30 mM): 0.261; Kd (pH=6.0, cc 30 mM, read-out: Apparent Affinity): 37.5 µM; Kd (pH=7.3, cc 30 mM, read-out: Apparent Affinity): 31.4 µM; Kd (pH=8.6, cc 30 mM, read-out: Apparent Affinity): 17.2 µM
CNCCCN1c2ccccc2CCc2ccccc21 [desipramine]	Class C	56.80 s	65.77 s	–	57.40 s	44.40 s	–	59.00 s	26.92 s	–	0.64	0.42	0.11	acceleration of onset	–	–	–	–	–	–	–
O=C(NCC1CCCCN1)c1cc(OCC(F)(F)F)ccc1OCC(F)(F)F (stereo not shown) [flecainide]	Class B	91.40 s	58.00 s	68.1 µM	68.00 s	24.60 s	25.9 µM	29.40 s	7.60 s	17.8 µM	–	–	–	significant acceleration of both onset and offset	1.142	1.344	0.64	68.1 µM	25.9 µM	17.8 µM	Ratio Tau Onset (pH 6.0/7.3, cc 300 mM): 2.358; log Ratio App Aff (pH 6.0/7.3, cc 300 mM): 0.419; Ratio Reversibility (pH 6.0/8.6, cc 300 mM): 2.794; Ratio Tau Offset (pH 6.0/8.6, cc 300 mM): 3.109; Ratio Tau Onset (pH 6.0/8.6, cc 300 mM): 7.632; log Ratio App Aff (pH 6.0/8.6, cc 300 mM): 0.583; Ratio Reversibility (pH 7.3/8.6, cc 300 mM): 2.446; Ratio Tau Offset (pH 7.3/8.6, cc 300 mM): 2.313; Ratio Tau Onset (pH 7.3/8.6, cc 300 mM): 3.237; log Ratio App Aff (pH 7.3/8.6, cc 300 mM): 0.164; Reversibility (pH=7.3, cc 300 mM): 0.56; Reversibility (pH=8.6, cc 300 mM): 0.23
Nc1nnc(-c2cccc(Cl)c2Cl)c(N)n1 [lamotrigine]	Class A	14.40 s	11.40 s	329 µM	13.40 s	13.00 s	622 µM	17.80 s	16.00 s	821 µM	–	–	–	–	0.765	1.075	0.74	329 µM	622 µM	821 µM	Ratio Tau Onset (pH 6.0/7.3, cc 300 mM): 0.877; log Ratio App Aff (pH 6.0/7.3, cc 300 mM): -0.277; Ratio Reversibility (pH 6.0/8.6, cc 300 mM): 0.930; Ratio Tau Offset (pH 6.0/8.6, cc 300 mM): 0.809; Ratio Tau Onset (pH 6.0/8.6, cc 300 mM): 0.713; log Ratio App Aff (pH 6.0/8.6, cc 300 mM): -0.398; Ratio Reversibility (pH 7.3/8.6, cc 300 mM): 1.215; Ratio Tau Offset (pH 7.3/8.6, cc 300 mM): 0.753; Ratio Tau Onset (pH 7.3/8.6, cc 300 mM): 0.813; log Ratio App Aff (pH 7.3/8.6, cc 300 mM): -0.121; Reversibility (pH=7.3, cc 300 mM): 0.96; Reversibility (pH=8.6, cc 300 mM): 0.79
CCN(CC)CC(=O)Nc1c(C)cccc1C [lidocaine]	Class A	8.49 s	6.17 s	917 µM	7.59 s	5.14 s	806 µM	5.98 s	4.86 s	515 µM	–	–	–	–	–	–	0.66	917 µM	806 µM	515 µM	τonset (pH 6.0, higher concentration: lidocaine 1000 μM, memantine 100 μM): 5.20 s; Kd (pH 6.0, higher concentration: lidocaine 1000 μM, memantine 100 μM, read-out: apparent affinity): 1670 µM; τonset (pH 7.3, higher concentration: lidocaine 1000 μM, memantine 100 μM): 5.20 s; Kd (pH 7.3, higher concentration: lidocaine 1000 μM, memantine 100 μM, read-out: apparent affinity): 1030 µM; τonset (pH 8.6, higher concentration: lidocaine 1000 μM, memantine 100 μM): 5.60 s; Kd (pH 8.6, higher concentration: lidocaine 1000 μM, memantine 100 μM, read-out: apparent affinity): 677 µM; Kd (pH=6.0, cc 1000 mM, read-out: Apparent Affinity): 1670 µM; Kd (pH=7.3, cc 1000 mM, read-out: Apparent Affinity): 1030 µM; Kd (pH=8.6, cc 1000 mM, read-out: Apparent Affinity): 677 µM
